Measurements taken from patent publication US20100203614A1, “FATTY ALDEHYDE REDUCTASE” (Utah State University, priority 2009, published 2010).

Experiments:
MBP-FALDR enzyme [1] = assay: Reversibility and cofactor test, spectrophotometric at 340 nm (NADP+, NADH, NAD+); assay type: biochemical, Marinobacter aquaeolei VT8; conditions: NADH with decanal, NAD+ with decanol, in place of NADPH/NADP+
From the text: When the assay was used to check for activity with NADH in place of NADPH, NADH was substituted for NADPH at the same concentration as was used for NADPH, and the assay run as described above. Reactions using either NADP^+ or NAD^+ also used the same concentration, but it followed the increase in absorbance monitored at 340 nm. Once the pH optimum was established for the enzyme, TAPS and MOPS were removed from the buffer, and only MES was used.
To test the possible reversibility of the fatty aldehyde reducatase enzyme comprising the amino acid sequence of SEQ ID NO: 2, the oxidation of a number of alcohols to the corresponding aldehyde using NADP^+ as the oxidant were tested. These tests were performed with the MBP-FALDR enzyme. In these assays, the increase in absorbance at 340 nm was followed. Under no conditions did any reduction of NADP^+ occur in the presence of the fatty alcohols tested. As a control, the alcohol dehydrogenase from Thermoanaerobium brokii was followed with 2-propanol and the same stock of NADP^+ to confirm the integrity of the assay.

[2] = test system: MBP-FALDR enzyme (maltose binding protein-fatty aldehyde reductase fusion protein); assay: Continuous spectrophotometric assay of fatty aldehyde reductase activity (NADPH oxidation at 340 nm), substrate comparison and kinetics; assay type: biochemical, Marinobacter aquaeolei VT8
Procedure: For Fatty Aldehyde Continuous Spectrophotometric Assay Development, all assays were performed in a sealed quartz cuvette with a 1 cm path length. The cuvette and solutions were first degassed with argon on a manifold to remove oxygen from the headspace and solutions. Substrates were initially disbursed into a buffer solution containing BSA at a concentration of 0.5 mg/mL by sonication for three ten second intervals using a microtip sonicator (Branson, Danbury, Conn.). The initial assay for pH optimization included a buffer of 100 mM MOPS, 100 mM MES, and 100 mM TAPS. For reduction assays, 75 μL of a 2 mg/mL NADPH stock was added to bring the initial concentration of NADPH in the cuvette to approximately 200 μM, and an approximate absorbance at 340 nm of 1.2 based on the reported extinction coefficient of 6220 M^−1 cm^−1 for NADPH. In all assays, the reaction was run for at least two minutes with the NADPH and substrate present, prior to the addition of any enzyme, to obtain a background oxidation rate of the NADPH. […] A linear fit of the data was then used to establish the rate, and the initial background rate was subtracted, to determine the rate associated with substrate reduction by the MBP-FALDR enzyme.
Having established that the MBP-FALDR would utilize NADPH as a substrate, it was possible to employ a continuous spectrophotometric assay to monitor substrate reduction rates based on the loss of absorbance at 340 nm when NADPH is oxidized to NADP^+. Using this assay, it was possible to establish the pH dependence of the reduction reaction. The rate of reaction was highest at pH 6.3, with a steep increase in activity going from 8.0 to 6.3. The rate at 6.3 was only slightly greater than at 6.5 ([…]). Several factors had to be considered in establishing the optimal pH of the assay. The first was the background oxidation of the NADPH without any MBP-FALDR enzyme present. […] The assays were run under an argon atmosphere to minimize oxidation of the NADPH by O2. A further consideration was the rapid degradation that occurs at the lowest pH values. […] So, for standard assays used here, a pH of 6.5 was selected, where the activity was minimally affected by slight variations in pH. The following discussion is useful in understanding some features and benefits of the various embodiments of the invention:
Utilizing the continuous assay to monitor MBP-FALDR activity, the dependence of rate on substrate concentration was determined for all of the commercially available substrates described above. Each assay was repeated multiple times to confirm the results from each single determination. The results obtained for cis-11-hexadecenal are shown in FIG. 2 and are representative of the results obtained for repeated determinations and for the other substrates. […] In addition, several factors could limit the observed activity. All of the substrates tested have limited solubility in aqueous solutions, and must first be suspended in solution via sonication. Even under these conditions, it is likely that the substrates exist inside micelles. The sonication process utilized here could result in the partial degradation of the substrate over time. Additionally, the suspension of the substrate in solution is only temporary, and the substrate slowly separates from aqueous solution. Due to these limitations, the measured activity is likely to be an underestimate of the actual activity. In the cell, the enzyme and substrate are likely associated with the hydrophobic membranes. […] It was also observed that the MBP-FALDR enzyme was unstable over time, even when stored at 4° C., losing as much as 50% of the activity over a period of a week. Though the purification is quite rapid, it is uncertain how much activity is lost during preparation. […]

MBP-FALDR enzyme [3] = assay: Initial assessment of activity: overnight reaction with NADPH/NADH or NADP+, GC/GC-MS analysis; assay type: biochemical, Marinobacter aquaeolei VT8
Procedure: For initial assessment of the activity of the purified MBP-FALDR enzyme, 50 μg of purified MBP-FALDR protein was added to a reaction mixture containing 100 mM of Tris buffer at pH 7.9, 100 mM NaCl, 2.4 mM of either NADPH or NADH as a reductant, and decanal, oleic acid, and hexadecanol as possible substrates. The assays were run under an argon atmosphere in septa sealed vials overnight at room temperature with constant gentle mixing. The products of the reactions were then extracted from the buffer by adding an equal volume of hexane and organic layer components were analyzed by gas chromatography equipped with a flame ionization detector (Forte HT5 column (SGE Analytical Science, Austin, Tex.), 30 meter by 0.32 mm inner diameter with 0.5 μm film thickness, with argon as a carrier and a temperature ramp from 60° C. to 360° C. increasing at 10° C. per minute). Samples containing new peaks not present in a control sample were also run through a gas chromatograph equipped with a mass spectrometer (Shimadzu GC-2010 and GCMS-QP2010S) to assign the identity of the product.
Preliminary experiments were run with the MBP-FALDR enzyme to probe possible substrates by mixing either NADH or NADPH with an aldehyde (decanal), alcohol (hexadecanol) or fatty acid (oleic acid) and then looking for changes in concentration of one or more of the potential substrates by GC analysis. The assays were allowed to run overnight in a sealed vial under an atmosphere of argon to maintain the reduced forms of the nicotinamide coenzymes. […] This initial result pointed to the likelihood that the MBP-FALDR enzyme is an NADPH-dependent fatty aldehyde reductase, and further experiments were run to characterize this activity. […] The activity of medium chain alcohol dehydrogenases from a broad range of species show rates of oxidation of alcohols that are 10% of the rates of the reduction of the corresponding aldehyde, so it is possible that this rate is too low to detect.

MBP-FALDR fusion protein = assay: Inhibition of decanal reduction by MBP-FALDR in the presence of NADPH; assay type: biochemical, Marinobacter aquaeolei VT8; conditions: at the two concentrations tested
Procedure: For Fatty Aldehyde Continuous Spectrophotometric Assay Development, all assays were performed in a sealed quartz cuvette with a 1 cm path length. The cuvette and solutions were first degassed with argon on a manifold to remove oxygen from the headspace and solutions. Substrates were initially disbursed into a buffer solution containing BSA at a concentration of 0.5 mg/mL by sonication for three ten second intervals using a microtip sonicator (Branson, Danbury, Conn.). The initial assay for pH optimization included a buffer of 100 mM MOPS, 100 mM MES, and 100 mM TAPS. For reduction assays, 75 μL of a 2 mg/mL NADPH stock was added to bring the initial concentration of NADPH in the cuvette to approximately 200 μM, and an approximate absorbance at 340 nm of 1.2 based on the reported extinction coefficient of 6220 M^−1 cm^−1 for NADPH. In all assays, the reaction was run for at least two minutes with the NADPH and substrate present, prior to the addition of any enzyme, to obtain a background oxidation rate of the NADPH.
Finally, the ability of decanol to inhibit reduction of decanal was also tested.
Referring again to Table 2, the inhibition assays were run in 100 mM MES buffer pH 6.5 with 200 μM NADPH, 250 μM decanal and 125 μg of MBP-FALDR fusion protein. All compounds were dissolved in buffer except dipyridyl, which was dissolved in dimethyl sulfoxide (DMSO).

[4] = Decanal reduction after Factor Xa removal of maltose binding protein; assay type: biochemical; conditions: MBP removed by Factor Xa cleavage
Procedure: Since all the assays were conducted with the MBP-FALDR fusion protein, a principle concern was whether the fusion protein accurately represented the activity of the wild-type fatty aldehyde reducatase enzyme comprising the amino acid sequence of SEQ ID NO: 2. To examine whether the maltose binding protein affected the activity of the wild-type fatty aldehyde reducatase enzyme comprising the amino acid sequence of SEQ ID NO: 2, the maltose binding protein was removed from the N-terminus of the fatty aldehyde reducatase enzyme comprising the amino acid sequence of SEQ ID NO: 2 by Factor Xa cleavage. The near complete cleavage of maltose binding protein was verified by SDS-PAGE. This cleavage is facilitated by the incorporation of a factor Xa cleavage site (Ile-Glu-Gly-Arg) just upstream of the EcoRI site of the pMAL-c2x vector.

Row | activity (substrate reduction rate) ([2]; substrate 100 μg/mL, 160 μg enzyme) | Relative Activity (Percent of Decanal) ([2]; substrate 100 μg/mL, 160 μg enzyme, decanal = 85 nmols/min/mg = 100) | Km ([2]; substrate of MBP-FALDR, Michaelis-Menten fit, NADPH, FIG. 2 substrate is cis-11-hexadecenal) | substrate conversion by GC (MBP-FALDR enzyme [3]; with NADPH, overnight, argon, room temperature, new peak confirmed as decanol by MS) | reverse reaction: aldehyde production by GC (MBP-FALDR enzyme [3]; with NADP+) | rate of substrate reduction versus MBP-FALDR fusion protein [4] | Molecule | activity over background with NADH or NAD+ (MBP-FALDR enzyme [1]) | substrate activity in words ([2]; compared with decanal, substrate 100 μg/mL) | inhibition of decanal reduction (MBP-FALDR fusion protein)
1 | 85 nmol/min/mg | 100% of Decanal | ~100 µM | decrease in the decanal peak | – | – | CCCCCCCCCC=O [Decanal] | no indication of activity over background | highest activity of the substrates tested | –
2 | – | – | – | – | no detectable levels | – | CCCCCCCCCCO [decanol] | no indication of activity over background | – | ~45%
3 | – | – | – | – | – | did not reveal any loss or improvement | cleaved fatty aldehyde reducatase enzyme: fatty aldehyde reductase of SEQ ID NO: 2 freed from MBP by Factor Xa cleavage (protein, Marinobacter aquaeolei VT8) MAIQQVHHADTSSSKVLGQLRGKRVLITGTTGFLGKVVLERLIRAVPDIGAIYLLIRGNKRHPDARSRFLEEIATSSVFDRLREADSEGFDAFLEERIHCVTGEVTEAGFGIGQEDYRKLATELDAVINSAASVNFREELDKALAINTLCLRNIAGMVDLNPKLAVLQVSTCYVNGMNSGQVTESVIKPAGEAVPRSPDGFYEIEELVRLLQDKIEDVQARYSGKVLERKLVDLGIREANRYGWSDTYTFTKWLGEQLLMKALNGRTLTILRPSIIESALEEPAPGWIEGVKVADAIILAYAREKVTLFPGKRSGIIDVIPVDLVANSIILSLAEALGEPGRRRIYQCCSGGGNPISLGEFIDHLMAESKANYAAYDHLFYRQPSKPFLAVNRALFDLVISGVRLPLSLTDRVLKLLGNSRDLKMLRNLDTTQSLATIFGFYTAPDYIFRNDELMALANRMGEVDKGLFPVDARLIDWELYLRKIHLAGLNRYALKERKVYSLKTARQRKKAA | – | – | –
